Reference: ChEMBL document CHEMBL3351640, “Design, regioselective synthesis and cytotoxic evaluation of 2-aminoimidazole-quinoline hybrids against cancer and primary endothelial cells” (Eur J Med Chem, 2014)

Key:
[1] = Cytotoxicity against human HCT116 cells after 48 hrs by MTT assay; type: functional, cell-based; settings: HCT-116, 48 h
[2] = Cytotoxicity against human DLD1 cells after 48 hrs by MTT assay; type: functional, cell-based; settings: DLD-1, 48 h
MDA-MB-231 = test: Cytotoxicity against human MDA-MB-231 cells after 48 hrs by MTT assay; type: functional, cell-based; settings: MDA-MB-231, 48 h
HUVEC = test: Cytotoxicity against HUVEC cells after 48 hrs by MTT assay; type: cell-based; settings: Homo sapiens

Structure (SMILES) | IC50 [1] [µM] | IC50 [2] [µM] | IC50 (MDA-MB-231) [µM] | IC50 (HUVEC) [µM]
Nc1nc(-c2ccccc2)cn1/N=C/c1cc2ccccc2nc1Cl | 6.92 | 16.4 | 49 | 46.7
Cc1ccc(-c2cn(/N=C/c3cc4ccccc4nc3Cl)c(N)n2)cc1 | > 50 | > 50 | > 50 | > 50
COc1ccc(-c2cn(/N=C/c3cc4ccccc4nc3Cl)c(N)n2)cc1 | 31.8 | > 50 | > 50 | 12.4
Nc1nc(-c2ccc(Cl)cc2)cn1/N=C/c1cc2ccccc2nc1Cl | > 50 | > 50 | > 50 | 28
Nc1nc(-c2ccc(Br)cc2)cn1/N=C/c1cc2ccccc2nc1Cl | > 50 | 23.9 | > 50 | 11.9
Cc1ccc2nc(Cl)c(/C=N/n3cc(-c4ccccc4)nc3N)cc2c1 | 7.12 | 8.79 | 48.1 | 41.5
Cc1ccc(-c2cn(/N=C/c3cc4cc(C)ccc4nc3Cl)c(N)n2)cc1 | 39.6 | 25.2 | 22.3 | 18
COc1ccc(-c2cn(/N=C/c3cc4cc(C)ccc4nc3Cl)c(N)n2)cc1 | > 50 | 25.7 | 23.6 | 12.2
Cc1ccc2nc(Cl)c(/C=N/n3cc(-c4ccc(Cl)cc4)nc3N)cc2c1 | > 50 | 38.9 | 35.2 | 38.5
Cc1ccc2nc(Cl)c(/C=N/n3cc(-c4ccc(Br)cc4)nc3N)cc2c1 | 49.9 | 39.3 | 38.2 | 13.4
Nc1nc(-c2cccc3ccccc23)cn1/N=C/c1cc2ccccc2nc1Cl | 6.34 | 9.48 | > 50 | > 50
Nc1nc(-c2ccc3ccccc3c2)cn1/N=C/c1cc2ccccc2nc1Cl | > 50 | > 50 | > 50 | 36.2
Cc1ccc2nc(Cl)c(/C=N/n3cc(-c4cccc5ccccc45)nc3N)cc2c1 | 5.84 | 8.3 | > 50 | 9.58
Cc1ccc2nc(Cl)c(/C=N/n3cc(-c4ccc5ccccc5c4)nc3N)cc2c1 | 27.4 | 10.2 | 35.6 | 11.3
Nc1nc(-c2cccs2)cn1/N=C/c1cc2ccccc2nc1Cl | 7.22 | 10.3 | > 50 | 10.2
Cc1ccc2nc(Cl)c(/C=N/n3cc(-c4cccs4)nc3N)cc2c1 | 7.71 | 8.99 | > 50 | 38
COc1cccc2c1C(=O)c1c(O)c3c(c(O)c1C2=O)C[C@@](O)(C(=O)CO)C[C@@H]3O[C@H]1C[C@H](N)[C@H](O)[C@H](C)O1 [DOXORUBICIN] | 0.34 | 0.84 | 1.47 | 
